Data published in patent publication US20170015654A1, “PYRIDAZINE COMPOUND” (TAKEDA PHARMACEUTICAL COMPANY LIMITED, priority 2014, published 2017).

Biological target: T1, SCD (Homo sapiens, UniProt O00767)
T1 construct: HCT116 (ATCC (American Type Culture Collection)) was inoculated at 1×10^5 cells/well to a 96-well plate; host or cells: HCT116
T1 sequence (O00767 1-359): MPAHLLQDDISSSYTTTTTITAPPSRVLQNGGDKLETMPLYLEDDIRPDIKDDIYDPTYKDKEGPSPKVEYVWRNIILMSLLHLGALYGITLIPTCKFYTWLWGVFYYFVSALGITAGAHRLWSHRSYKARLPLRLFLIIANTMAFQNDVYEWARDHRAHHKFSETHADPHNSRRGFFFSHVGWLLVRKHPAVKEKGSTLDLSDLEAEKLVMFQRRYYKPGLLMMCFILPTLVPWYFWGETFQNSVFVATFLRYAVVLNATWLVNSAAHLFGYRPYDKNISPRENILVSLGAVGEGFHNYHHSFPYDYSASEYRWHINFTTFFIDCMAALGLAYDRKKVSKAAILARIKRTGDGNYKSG
Test: Measurement of SCD inhibitory activity using human large intestine cancer cell line (HCT116 cell)
Assay type: cell-based
Details: HCT-116; 1 μM compound; HCT116 cells; [14C]stearic acid, 3 hours; read-out: Rate of inhibition of SCD activity at compound concentration of 1 μM
Experimental: Measurement of SCD Inhibitory Activity Using Human Large Intestine Cancer Cell Line (HCT116 Cell)
HCT116 (ATCC (American Type Culture Collection)) was inoculated at 1×10^5 cells/well to a 96-well plate and cultured overnight in DMEM (Dulbecco's modified Eagle medium) containing 10% FBS (fetal bovine serum) (AusGeneX PTY LTD.). After the culture, each well was washed twice with phosphate-buffered saline (PBS) (200 μL). Then, a reaction medium (DMEM, penicillin/streptomycin, 0.3% BSA) containing 1.5 μM of the test compound was added thereto at 40 μL/well, and the plate was left standing for 15 minutes in a CO2 incubator (37° C.). A reaction medium containing 0.1 μCi of [^14C]stearic acid was added at 20 μL/well to the plate thus left standing, and the plate was left standing for 3 hours in a CO2 incubator (37° C.). Each well of the plate thus left standing was washed twice with 200 μL of PBS. Then, 2.5 N NaOH was added thereto at 20 μL/well, and the plate was provided with a plate seal and then incubated overnight in a heat sterilizer set to 55° C. A formic acid:methanol:chloroform (1:16:4) solution was added at 200 μL/well to the plate thus left standing. Further, the mixture in each well was separated into two layer by the addition of 200 μL of pure water. After the separation, a 10 μL aliquot was separated from the lower layer, spotted on a reverse-phase TLC plate (RP-18, 1154230001, Merck KGaA), and developed with an acetonitrile:pure water:acetic acid (95:4.5:0.5) solution. After drying, the TLC plate was transferred to Imaging Plate (Fuji Photo Film) for 5 hours or longer. Detection was carried out using FLA7000 (GE Healthcare Japan Corp.), and the obtained spot images were digitalized using ImageQuant TL (GE Healthcare Japan Corp.) to determine the rate of inhibition of SCD activity (%).

| inhibition at 1 µM [%] | Structure (SMILES) |
| --- | --- |
| 99 | COC1(c2ccc(S(F)(F)(F)(F)F)cc2)CCN(c2ccc(-c3nnc(CO)o3)nn2)CC1 [Example 93, (5-(6-(4-Methoxy-4-(4-(pentafluorosulfanyl)phenyl)piperidin-1-yl)pyridazin-3-yl)-1,3,4-oxadiazol-2-yl)methanol] |
| 101 | COC1(c2ccc(S(F)(F)(F)(F)F)cc2)CCN(c2ccc(-c3nnc(CO)s3)nn2)CC1 [Example 111, (5-(6-(4-Methoxy-4-(4-(pentafluorosulfanyl)phenyl)piperidin-1-yl)pyridazin-3-yl)-1,3,4-thiadiazol-2-yl)methanol] |
| 96 | N#CC1(c2ccc(S(F)(F)(F)(F)F)cc2)CCN(c2ccc(-c3nnc(CO)s3)nn2)CC1 [Example 109, 1-(6-(5-(Hydroxymethyl)-1,3,4-thiadiazol-2-yl)pyridazin-3-yl)-4-(4-(pentafluorosulfanyl)phenyl)piperidine-4-carbonitrile] |
| 98 | COC1(c2ccc(S(F)(F)(F)(F)F)cc2)CCN(c2ccc(-c3nc(CO)ns3)nn2)CC1 [Example 110, (5-(6-(4-Methoxy-4-(4-(pentafluorosulfanyl)phenyl)piperidin-1-yl)pyridazin-3-yl)-1,2,4-thiadiazol-3-yl)methanol] |
| 97 | OCc1nsc(-c2ccc(N3CCC(c4ccc(C(F)(F)F)cc4)(C(F)(F)F)CC3)nn2)n1 [Example 112, (5-(6-(4-(Trifluoromethyl)-4-(4-(trifluoromethyl)phenyl)piperidin-1-yl)pyridazin-3-yl)-1,2,4-thiadiazol-3-yl)methanol] |
| 99 | OCc1nnc(-c2ccc(N3CCC(c4ccc(C(F)(F)F)cc4)(C(F)(F)F)CC3)nn2)s1 [Example 113, (5-(6-(4-(Trifluoromethyl)-4-(4-(trifluoromethyl)phenyl)piperidin-1-yl)pyridazin-3-yl)-1,3,4-thiadiazol-2-yl)methanol] |
| 97 | N#CC1(c2ccc(S(F)(F)(F)(F)F)cc2)CCN(c2ccc(-c3nnc(CO)o3)nn2)CC1 [Example 58, 1-(6-(5-(Hydroxymethyl)-1,3,4-oxadiazol-2-yl)pyridazin-3-yl)-4-(4-(pentafluorosulfanyl)phenyl)piperidine-4-carbonitrile] |
| 99 | OCc1noc(-c2ccc(N3CCC(c4ccc(C(F)(F)F)cc4)(C(F)(F)F)CC3)nn2)n1 [Example 82, (5-(6-(4-(Trifluoromethyl)-4-(4-(trifluoromethyl)phenyl)piperidin-1-yl)pyridazin-3-yl)-1,2,4-oxadiazol-3-yl)methanol] |
| 99 | OCc1nnc(-c2ccc(N3CCC(c4ccc(C(F)(F)F)cc4)(C(F)(F)F)CC3)nn2)o1 [Example 84, (5-(6-(4-(Trifluoromethyl)-4-(4-(trifluoromethyl)phenyl)piperidin-1-yl)pyridazin-3-yl)-1,3,4-oxadiazol-2-yl)methanol] |
| 100 | N#CC1(c2ccc(S(F)(F)(F)(F)F)cc2)CCN(c2ccc(-c3nc(CO)ns3)nn2)CC1 [Example 108, 1-(6-(3-(Hydroxymethyl)-1,2,4-thiadiazol-5-yl)pyridazin-3-yl)-4-(4-(pentafluorosulfanyl)phenyl)piperidine-4-carbonitrile] |
